# Results: US7632505B2, “Treatment of macrophage mediated disease” (Purdue Research Foundation, priority 2001, dated 2009)
# How the values were obtained:
# activated macrophages = assay: Biodistribution analysis (gamma counting of harvested tissues) in arthritic rats; type: in vivo, rat; settings: FF 2000 nmoles/kg days 1,2,3,9,11,14 or MTX 0.15 mg days 1,8,15
# Experimental: Arthritis was induced in 150-200 g female Lewis rats (Charles River Laboratories, Inc., Wilmington, Mass.), n=4/dose group. Briefly, 0.5 mg of heat-killed Mycoplasma butericum, suspended in mineral oil (5 mg/ml), was injected on day 0 into the left hind foot of rats following anesthesia with ketamine and xylazine. Disease was allowed to progress for 21 days, and animals were weighed on a daily basis to ensure the status of their health. […] All rats were maintained on a folate-deficient diet (DYETS, Inc., Bethlehem, Pa.) for 3 weeks prior to administration of folate-FITC in order to lower serum folate levels to physiologically relevant concentrations. Control rats were also maintained on a folate-deficient diet but not induced to develop arthritis.
# Seventeen days following induction of the arthritis and three days prior to administration of the imaging agent (EC20), rats destined for macrophage depletion received a single intraperitoneal injection of clodronate liposomes containing 20 mg clodronate. […]
# For biodistribution analysis, rats were euthanized by intraperitoneal injection of nebutal or pentobarbitol sodium. Liver, spleen, heart, lungs, intestine, and kidneys were then harvested and radiation in each tissue was determined by counting in a gamma counter (Packard BioScience Co., Meridian, Conn.).
# [1] = system: adjuvant-induced arthritis in rats; assay: Adjuvant-induced arthritis, paw swelling (immunotherapy mediated protection); type: in vivo, rat; settings: for inhibition of adjuvant-induced arthritis, left and right paw: Example 14, folate-FITC 3000 nmoles/kg per day, days 1,2,3, osmotic pump, MTX 0.15 mg ip days 1,8,15
# Experimental: Arthritis was induced in 150-200 g female Lewis rats (Charles River Laboratories, Inc., Wilmington, Mass.), n=4/dose group. Briefly, 0.5 mg of heat-killed Mycoplasma butericum, suspended in mineral oil (5 mg/ml), was injected on day 0 into the left hind foot of rats following anesthesia with ketamine and xylazine. Disease was allowed to progress for 21 days, and animals were weighed on a daily basis to ensure the status of their health. […] Control rats were also maintained on a folate-deficient diet but not induced to develop arthritis.
# The efficacy of a folate-FITC conjugate (folate-fluorescein isothiocyanate conjugate) against adjuvant-induced arthritis in rats was investigated. Each rat used in the experiment was immunized at the base of the tail with FITC-KLH (150 μg) to induce antibodies against FITC on days −38 and −10 before administration of Mycoplasma butericum (adjuvant) to induce arthritis. The immunization of FITC-KLH was done in combination with an adjuvant (i.e., such as TITERMAX® GOLD (150 μg), Alum (150 μg), or GPI-100 (150 μg) which are all adjuvants to induce antibodies against FITC as opposed to the adjuvant used to induce arthritis). The immunized animals were then injected on day 0 in the left foot pad with 0.5 mg of heat-killed Mycoplasma butyricum (adjuvant) to initiate development of arthritis. Then on days 1, 2, 3, 9, 11, and 14, post-adjuvant (Mycoplasma butyricum) injection, the rats were injected intraperitoneally with either saline (control rats) or 2000 nmoles/kg of folate-FITC (FF). Calipers were used to measure left and right foot dimensions daily.
# Methotrexate (MTX) was administered at a dose of 0.15 mg by intraperitoneal injection one time per day on days 1, 8, and 15 after adjuvant administration. MTX was used in place of folate-FITC for animals treated with MTX.
# Other animals were treated with 0.75 mg of MTX (FF+mid) or 1.5 mg of MTX (FF+high).
# liver macrophages = assay: Flow cytometry of folate-FITC binding to disaggregated liver cells (ED2 macrophage marker); type: cell-based, rat
# From the text: The protocols described in Examples 2, 4, 6 and 7 were used. To further confirm that the elevated uptake of EC20 in livers of arthritic rats is due to a macrophage population, livers were resected from collagenase-perfused rats and their disaggregated cells examined for folate conjugate uptake, using folate-FITC as a fluorescent marker for FR expression.
# [2] = system: Mac-1+ peripheral blood cells
# From the text: (§1) Using an antibody specific for granulocytes, we also examined whether tissue infiltrating neutrophils might take up folate conjugates.
# [3] = system: tissue infiltrating neutrophils
# From the text: as §1
# [4] = Example 8, 2000 nmoles/kg ip days 1,2,3,9,11,14, FITC-immunized rats
SMILES,effect of treatment on EC20 organ uptake (activated macrophages),"inhibition of adjuvant-induced arthritis, left and right paw [1]",binding in presence of excess free folic acid (liver macrophages; 1 mM folic acid),"liver macrophages that bound folate-FITC (liver macrophages; arthritic rats, 1 μM folate-FITC)",FITC intensity of arthritic macrophages (liver macrophages; vs macrophages from healthy livers),"activated macrophages invading feet after about 10 days (foot dimensions) [1, 4]","early (neutrophil) phase of paw swelling of adjuvant-injected feet [1, 4]","prolonged treatment vs 3 initial doses ([1]; Example 15, 3000 nmoles/kg, days 1,2,3,9,11,14 vs days 1,2,3)","inhibition of adjuvant-induced arthritis, right (uninjected) paw volume ([1]; Example 15, FF 3000, 600 and 120 nmoles/kg)",binding to Mac-1+ peripheral blood cells [2],binding to liver neutrophils [3]
"CN(Cc1cnc2nc(N)nc(N)c2n1)c1ccc(C(=O)N[C@@H](CCC(=O)O)C(=O)O)cc1 [MTX, Methotrexate, reference compound]",prevent EC20 uptake in all organs examined except the kidney,inhibits adjuvant-induced arthritis as well as MTX,–,–,–,–,–,–,–,–,–
"Nc1nc2ncc(CNc3ccc(C(=O)NC(CCC(=O)NCCNC(=S)Nc4ccc(C(=O)O)c(-c5c6ccc(=O)cc-6oc6cc(O)ccc56)c4)C(=O)O)cc3)nc2c(=O)[nH]1 (stereo not shown) [folate-FITC, folate-fluorescein isothiocyanate]",prevent EC20 uptake in all organs examined except the kidney,inhibits adjuvant-induced arthritis as well as MTX,suppressed,70%,higher than that of macrophages from healthy livers,eliminated or reduced,no impact on this phase of paw swelling,prolonged treatment with FF is more effective than 3 initial doses,inhibits adjuvant-induced arthritis in the right paw,no binding affinity,no binding capacity
